Assay results from ChEMBL document CHEMBL6134880, “Targeting Oncogenic Pathways: Advances in KRAS, CDK, EGFR, and PROTAC-Based Therapies” (ACS Med Chem Lett, 2025).
pIC50: −log10 of the molar value.

Assays:
SOS1-KRAS = SOS1-KRAS (Homo sapiens, UniProt P01116, G12D); experiment: (§1) Inhibition of GST-tagged KRAS G12D mutant (2 to 169 residues) (unknown origin)/SOS1 catalytic domain (564 to 1069 residues) (unknown origin) protein-protein interaction preincubated with compound for 60 mins followed by SOS1 and GTP-DY-647P1 addition and measured after 30 mins by fluorescence based nucleotide exchange assay; format: protein-complex assay
[1] = as §1, with “G12V” for “G12D”, “90” for “30”; set-up: species or system Homo sapiens

SMILES: N#Cc1c(N)sc2c1C1(CC2)CN(c2nc(OC[C@@]34CCCN3C[C@H](F)C4)nc(N3CCCC(C#N)CC3)n2)C1 (some centres undefined)
- pIC50 (SOS1-KRAS): 8.00
- pIC50 [1]: > 8.00

SMILES: C[C@@]1(O)C[C@@H](O)CN(c2nc(OC[C@@]34CCCN3C[C@H](F)C4)nc(N3CC4(CCc5sc(N)c(C#N)c54)C3)n2)C1
- pIC50 (SOS1-KRAS): > 8.00
- pIC50 [1]: > 8.00

SMILES: CN(C)CC1(COc2nc(N3CC4(CCc5sc(N)c(C#N)c54)C3)nc(N3CCC[C@@](C)(O)C3)n2)CC1(F)F (some centres undefined)
- pIC50 (SOS1-KRAS): > 8.00
- pIC50 [1]: > 8.00

SMILES: N#Cc1c(N)sc2c1C1(CC2)CN(c2nc(OCC3(CN4CCOCC4)CC3)nc(N3C[C@H]4CC[C@@H](C3)N4)n2)C1
- pIC50 (SOS1-KRAS): > 8.00
- pIC50 [1]: 8.00

SMILES: CC1(O)CCN(c2nc(OCC3(CN4CCOCC4)CC3)nc(N3CC4(CCc5sc(N)c(C#N)c54)C3)n2)CC1
- pIC50 (SOS1-KRAS): > 8.00
- pIC50 [1]: > 8.00

SMILES: N#Cc1c(N)sc2c1C1(CC2)CN(c2nc(OC[C@@]34CCCN3C[C@H](F)C4)nc(N3CCCC4(C3)NC(=O)NC4=O)n2)C1 (some centres undefined)
- pIC50 (SOS1-KRAS): > 8.00
- pIC50 [1]: > 8.00

SMILES: C=C1CN2CCCC2(COc2nc(N3CC4(CCc5sc(N)c(C#N)c54)C3)nc(N3CCC[C@@](C)(O)C3)n2)C1 (some centres undefined)
- pIC50 (SOS1-KRAS): > 8.00
- pIC50 [1]: > 8.00

SMILES: CC1(O)CCCCN(c2nc(OC[C@@]34CCCN3C[C@H](F)C4)nc(N3CC4(CCc5sc(N)c(C#N)c54)C3)n2)C1 (some centres undefined)
- pIC50 (SOS1-KRAS): 8.00
- pIC50 [1]: > 8.00

SMILES: C[C@@]1(O)CCCN(c2nc(OC[C@@]34CCCN3C[C@H](F)C4)nc(N3CC4(C3)SCc3sc(N)c(C#N)c34)n2)C1
- pIC50 (SOS1-KRAS): > 8.00
- pIC50 [1]: > 8.00

SMILES: N#Cc1c(N)sc2c1C1(CC2)CN(c2nc(OC[C@@]34CCCN3C[C@H](F)C4)nc(N3CCCCC(O)C3)n2)C1 (some centres undefined)
- pIC50 (SOS1-KRAS): 8.00
- pIC50 [1]: > 8.00

SMILES: N#Cc1c(N)sc2c1C1(CC2)CN(c2nc(OCC3(CN4CCOCC4)CC3)nc(N3CCCC4(C3)NC(=O)NC4=O)n2)C1 (centres undefined)
- pIC50 (SOS1-KRAS): > 8.00
- pIC50 [1]: > 8.00

SMILES: C[C@@]1(O)CCCN(c2nc(OC[C@@]34CCCN3C[C@H](F)C4)nc(N3CC4(CCc5sc(N)c(C#N)c54)C3)n2)C1
- pIC50 (SOS1-KRAS): > 8.00
- pIC50 [1]: > 8.00
